# Patent US11466044B2 (WAYNE STATE UNIVERSITY, priority 2017, dated 2022)
# Where two headings read alike, the source gives them in different places.
# Key:
# [1] = system: E coli carrying specific resistance determinants; assay: MIC by broth microdilution, E coli carrying specific resistance determinants; assay type: cell-based; conditions: Escherichia coli
# [2] = system: mitochondrial ribosome (human chimeric); assay type: biochemical
# Source text: (§1) The antiribosomal activity of these compounds was investigated with cell-free translation assays using both wild type bacterial ribosomes and hybrid ribosomes carrying eukaryotic decoding A sites enabling the prediction of selectivity.
# [3] = system: cytosolic ribosome (human chimeric); assay type: biochemical
# Source text: as §1
# M. smegmatis SZ380 = assay: MIC by broth microdilution, M. smegmatis; conditions: Mycolicibacterium smegmatis
# [4] = system: Enterobacter cloacae AG290; assay: MIC by broth microdilution, Enterobacter cloacae; assay type: cell-based; conditions: strain AG290 Enterobacter cloacae; read-out: MIC AG290 E. cloacae
# M. abscessus = assay: MIC by broth microdilution, M. abscessus; assay type: cell-based; conditions: Mycobacteroides abscessus
# [5] = system: A1555G mutant mitochondrial ribosome (human chimeric); assay: in-vitro translation assay, human chimeric ribosomes, A1555G mutant mitochondrial decoding site; assay type: biochemical; conditions: human mitochondrial decoding site with A1555G point mutation; read-out: IC50 Mitoch. A1555G
# Source text: as §1
smiles,measurement,setting,value
"NC[C@@H]1O[C@H](O[C@H]2[C@@H](O)[C@H](O[C@@H]3[C@@H](O)[C@H](N)C[C@H](N)[C@H]3O[C@H]3O[C@H](CO)[C@@H](O)[C@H](O)[C@H]3N)O[C@@H]2CO)[C@H](N)[C@@H](O)[C@@H]1O [paromomycin, reference compound]",MIC50,"[1]; read-out: MIC50 E coli AG036 ANT(4′,4″), AG036 ANT(4′,4″), Table 2A (Example 2)",256 µg/mL
same,MIC50,"[1]; read-out: MIC50 E coli AG036 ANT(4′,4″), AG036 ANT(4′,4″), Table 2B (Example 2)",32 to 64 µg/mL
same,MIC50,"[1]; read-out: MIC50 E coli AG037 APH(3′)-III, AG037 APH(3′)-III, Table 2B (Example 2)",> 128 µg/mL
same,MIC50,"[1]; read-out: MIC50 E coli AG037 APH(3′,5″), AG037 APH(3′,5″), Table 2A (Example 2)",> 256 µg/mL
same,MIC50,"[1]; read-out: MIC50 E coli AG103 ArmA, AG103 ArmA, Table 2A (Example 2)",4 µg/mL
same,MIC50,"[1]; read-out: MIC50 E coli AG103 armA, AG103 armA, Table 2B (Example 2)",2 µg/mL
same,MIC50,"[1]; read-out: MIC50 E coli AG105 AAC(2′), AG105 AAC(2′), Table 2A (Example 2)",2 to 4 µg/mL
same,MIC50,"[1]; read-out: MIC50 E coli pH414 AAC(6′)-I, pH414 AAC(6′)-I, Table 2B (Example 2)",2 µg/mL
same,MIC50,"[1]; read-out: MIC50 E coli pH415 AAC(6′)-II, pH415 AAC(6′)-II, Table 2B (Example 2)",2 to 4 µg/mL
same,MIC50,"[1]; read-out: MIC50 E coli pH421 APH(3′)-I, pH421 APH(3′)-I, Table 2B (Example 2)",> 128 µg/mL
same,MIC50,"[1]; read-out: MIC50 E coli pH422 APH(3′)-II, pH422 APH(3′)-II, Table 2B (Example 2)",> 128 µg/mL
same,MIC50,"[1]; read-out: MIC50 E coli pH423 APH(3)-VI, pH423 APH(3)-VI, Table 2B (Example 2)",> 128 µg/mL
same,MIC50,"[1]; read-out: MIC50 E coli pH432 ANT(4′), pH432 ANT(4′), Table 2B (Example 2)",1 to 2 µg/mL
same,MIC,[1]; read-out: MIC AAC(6′),2 to 4 µg/mL
same,MIC,[1]; read-out: MIC AG003 E. coli AAC(3)-II,2 to 4 µg/mL
same,MIC,"[1]; read-out: MIC AG036 ANT(4′,4′′)",32 to 64 µg/mL
same,MIC,[1]; read-out: MIC AG037 APH(3′)-III,> 128 µg/mL
same,MIC,[1]; read-out: MIC AG037 E. coli APH(3′)-III,> 128 µg/mL
same,MIC,[1]; read-out: MIC AG103 armA,2 µg/mL
same,MIC,[1]; read-out: MIC AG163 E. coli APH(3′)-I,> 128 µg/mL
same,MIC,[1]; read-out: MIC AG166 E. coli APH(3′)-II,> 128 µg/mL
same,MIC,[1]; read-out: MIC ANT(4′),32 to 64 µg/mL
same,MIC,[1]; read-out: MIC APH(3)-VI,> 64 µg/mL
same,MIC,[1]; read-out: MIC APH(3′)-I,> 64 µg/mL
same,MIC,[1]; read-out: MIC APH(3′)-II,> 64 µg/mL
same,MIC,[1]; read-out: MIC APH(3′)-III,> 64 µg/mL
same,MIC,[1]; read-out: MIC APH(3′)-VI,> 64 µg/mL
same,MIC,[1]; read-out: MIC E coli AG007 ANT(3″) AAC(3)-I,4 µg/mL
same,MIC,[1]; read-out: MIC E coli AG103 ArmA,1 to 2 µg/mL
same,MIC,[1]; read-out: MIC E coli AG106 AAC(2′),> 64 µg/mL
same,MIC,[1]; read-out: MIC E coli AG163/164 APH(3′)-Ia,> 128 µg/mL
same,MIC,[1]; read-out: MIC E coli AG166 APH(3′)-IIa,> 128 µg/mL
same,MIC,[1]; read-out: MIC E coli AG173 AAC(3)-IV,2 to 4 µg/mL
same,MIC,[1]; read-out: MIC E coli AG182 AAC(3)-IV APH(3′)-Ia,> 128 µg/mL
same,MIC,[1]; read-out: MIC E. coli AAC(2′) AG106,> 64 µg/mL
same,MIC,[1]; read-out: MIC E. coli AAC(2′) pH434,> 64 µg/mL
same,MIC,[1]; read-out: MIC E. coli AG106 AAC(2′)-Ia,> 64 µg/mL
same,MIC,[1]; read-out: MIC E. coli pGB2armA armA,2 µg/mL
same,MIC,[1]; read-out: MIC E. coli pH434 AAC(2′)-Ib,> 64 µg/mL
same,MIC,[1]; read-out: MIC pH414 AAC(6′)-I,2 µg/mL
same,MIC,[1]; read-out: MIC pH415 AAC(6′)-II,2 to 4 µg/mL
same,MIC,[1]; read-out: MIC pH421 APH(3)-I,> 128 µg/mL
same,MIC,[1]; read-out: MIC pH421 E. coli APH(3′)-I,> 128 µg/mL
same,MIC,[1]; read-out: MIC pH422 APH(3′)-II,> 128 µg/mL
same,MIC,[1]; read-out: MIC pH422 E. coli APH(3′)-II,> 128 µg/mL
same,MIC,[1]; read-out: MIC pH423 APH(3′)-VI,> 128 µg/mL
same,MIC,[1]; read-out: MIC pH423 E. coli APH(3′)-VI,> 128 µg/mL
same,MIC,[1]; read-out: MIC pH432 ANT(4′),1 to 2 µg/mL
same,IC50,"[2]; mitochondrial, Table 3 (Example 1), read-out: IC50 Mit",140 µM
same,IC50,"[2]; mitochondrial, Table 3 (Example 2), read-out: IC50 Mit",140 µM
same,IC50,"[2]; mitochondrial, Table 4 (Example 3), read-out: IC50 Mit",140 µM
same,IC50,"[2]; ribosomes with a human mitochondrial decoding site, read-out: IC50 Mitoch.",140 µM
same,IC50,"[3]; cytosolic, Table 3 (Example 1), read-out: IC50 Cyt",31 µM
same,IC50,"[3]; cytosolic, Table 3 (Example 2), read-out: IC50 Cyt",31 µM
same,IC50,"[3]; cytosolic, Table 4 (Example 3), read-out: IC50 Cyt",31 µM
same,IC50,"[3]; ribosomes with a human cytosolic decoding site, read-out: IC50 Cytosolic",31 µM
same,MIC,"M. smegmatis SZ380; SZ380, read-out: MIC M. smegmatis SZ380 WT, SZ380 WT, Table 5 (Example 3)",1 µg/mL
same,MIC,"M. smegmatis SZ380; SZ380, read-out: MIC SZ380 M. smegmatis, strain SZ380 Mycobacterium smegmatis",1 µg/mL
same,MIC,[4],2 µg/mL
same,MIC,"M. abscessus; ATCC19977, read-out: MIC M. abscessus ATCC 19977 WT",8 µg/mL
same,MIC,M. abscessus; read-out: MIC M. abscessus ATCC,8 µg/mL
same,MIC,M. abscessus; read-out: MIC M. abscessus Clin. Isol.,32 µg/mL
same,MIC,M. abscessus; read-out: MIC M. abscessus clinical isolate,32 µg/mL
same,MIC,M. abscessus; read-out: MIC M. abscessus engineered Δeis2,4 µg/mL
same,IC50,[5],15 µM
